Assay results reported in patent US9149475B2, “Protein kinase C inhibitors and uses thereof” (Rigel Pharmaceuticals, Inc., priority 2009, dated 2015).

Tested on: Human primary T cells
Experiment: IL-2 ELISA, human primary T cell, anti-CD3+CD28+ (whole cell assay)
Format: cell-based
Conditions: Homo sapiens, T-cell, 24 h, human primary T cells stimulated with anti-CD3 + anti-CD28, 24 hours
Procedure, shortened: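 IL-2 secreted over 24 h at 37° C was quantified by ELISA after plate-bound αCD3 (1 μg/ml) and αCD28 (5 μg/ml) stimulation, or PMA (0.5 ng/ml) with ionomycin (0.1 μM) as counter-screen. Cells were IL-2-starved primary human T cells, expanded from volunteer PBMC and exposed to compound for 1 hr beforehand.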

Structure (SMILES) | IC50
CC(C)Oc1ccc(Nc2ncc(F)c(NC3CC(C)(C)N(C)C(C)(C)C3)n2)cc1N(C)C(C)C [III-66, 5-fluoro-N2-(4-isopropoxy-3-(isopropyl(methyl)amino)phenyl)-N4-(1,2,2,6,6-pentamethylpiperidin-4-yl)pyrimidine-2,4-diamine] | > 1000 nM
CCc1nnnn1-c1cc(Nc2ncc(F)c(NC3CC(C)(C)NC(C)(C)C3)n2)ccc1OC(F)F [III-67, N2-(4-(difluoromethoxy)-3-(5-ethyl-1H-tetrazol-1-yl)phenyl)-5-fluoro-N4-(2,2,6,6-tetramethylpiperidin-4-yl)pyrimidine-2,4-diamine] | 250 to 500 nM
CN1C(C)(C)CC(Nc2nc(Nc3cccc(-c4nn[nH]n4)c3)ncc2F)CC1(C)C [III-68, N2-(3-(2H-tetrazol-5-yl)phenyl)-5-fluoro-N4-(1,2,2,6,6-pentamethylpiperidin-4-yl)pyrimidine-2,4-diamine] | > 1000 nM
CC1(C)CC(Nc2nc(Nc3cccc(-c4nn[nH]n4)c3)ncc2F)CC(C)(C)N1 [III-69, N2-(3-(2H-tetrazol-5-yl)phenyl)-5-fluoro-N4-(2,2,6,6-tetramethylpiperidin-4-yl)pyrimidine-2,4-diamine] | > 1000 nM
CC(C)n1nnnc1-c1cccc(Nc2ncc(F)c(NC3CC(C)(C)N(C)C(C)(C)C3)n2)c1 [III-70, 5-fluoro-N2-(3-(1-isopropyl-1H-tetrazol-5-yl)phenyl)-N4-(1,2,2,6,6-pentamethylpiperidin-4-yl)pyrimidine-2,4-diamine] | < 250 nM
CC(C)n1nnnc1-c1cccc(Nc2ncc(F)c(NC3CC(C)(C)NC(C)(C)C3)n2)c1 [III-71, 5-fluoro-N2-(3-(1-isopropyl-1H-tetrazol-5-yl)phenyl)-N4-(2,2,6,6-tetramethylpiperidin-4-yl)pyrimidine-2,4-diamine] | 500 to 1000 nM
CN1C(C)(C)CC(Nc2nc(Nc3cccc(-c4nnnn4C4CC4)c3)ncc2F)CC1(C)C [III-72, N2-(3-(1-cyclopropyl-1H-tetrazol-5-yl)phenyl)-5-fluoro-N4-(1,2,2,6,6-pentamethylpiperidin-4-yl)pyrimidine-2,4-diamine] | < 250 nM
CC1(C)CC(Nc2nc(Nc3cccc(-c4nnnn4C4CC4)c3)ncc2F)CC(C)(C)N1 [III-73, N2-(3-(1-cyclopropyl-1H-tetrazol-5-yl)phenyl)-5-fluoro-N4-(2,2,6,6-tetramethylpiperidin-4-yl)pyrimidine-2,4-diamine] | 500 to 1000 nM
CN1C(C)(C)CC(Nc2nc(Nc3cccc(-c4nnnn4CCF)c3)ncc2F)CC1(C)C [III-74, 5-fluoro-N2-(3-(1-(2-fluoroethyl)-1H-tetrazol-5-yl)phenyl)-N4-(1,2,2,6,6-pentamethylpiperidin-4-yl)pyrimidine-2,4-diamine] | 250 to 500 nM
CC1(C)CC(Nc2nc(Nc3cccc(-c4nnnn4CCF)c3)ncc2F)CC(C)(C)N1 [III-75, 5-fluoro-N2-(3-(1-(2-fluoroethyl)-1H-tetrazol-5-yl)phenyl)-N4-(2,2,6,6-tetramethylpiperidin-4-yl)pyrimidine-2,4-diamine] | 500 to 1000 nM
CN1C(C)(C)CC(Nc2nc(Nc3cccc(-c4nnnn4CCN4CCOCC4)c3)ncc2F)CC1(C)C [III-76, 5-fluoro-N2-(3-(1-(2-morpholinoethyl)-1H-tetrazol-5-yl)phenyl)-N4-(1,2,2,6,6-pentamethylpiperidin-4-yl)pyrimidine-2,4-diamine] | 500 to 1000 nM
CC1(C)CC(Nc2nc(Nc3cccc(-c4nnnn4CCN4CCOCC4)c3)ncc2F)CC(C)(C)N1 [III-77, 5-fluoro-N2-(3-(1-(2-morpholinoethyl)-1H-tetrazol-5-yl)phenyl)-N4-(2,2,6,6-tetramethylpiperidin-4-yl)pyrimidine-2,4-diamine] | > 1000 nM
CN1C(C)(C)CC(Nc2nc(Nc3cc(F)c(OC4CCN(S(C)(=O)=O)CC4)c(F)c3)ncc2F)CC1(C)C [III-78, N2-(3,5-difluoro-4-(1-(methylsulfonyl)piperidin-4-yloxy)phenyl)-5-fluoro-N4-(1,2,2,6,6-pentamethylpiperidin-4-yl)pyrimidine-2,4-diamine] | 500 to 1000 nM
CN1C(C)(C)CC(Nc2nc(Nc3cc(F)c(OC4CCCN(S(C)(=O)=O)CC4)c(F)c3)ncc2F)CC1(C)C (stereo not drawn) [III-79, N2-(3,5-difluoro-4-(1-(methylsulfonyl)azepan-4-yloxy)phenyl)-5-fluoro-N4-(1,2,2,6,6-pentamethylpiperidin-4-yl)pyrimidine-2,4-diamine] | 500 to 1000 nM
CC1(C)CC(Nc2nc(Nc3cc(F)c(OC4CCCN(S(C)(=O)=O)CC4)c(F)c3)ncc2F)CC(C)(C)N1 (stereo not drawn) [III-80, N2-(3,5-difluoro-4-(1-(methylsulfonyl)azepan-4-yloxy)phenyl)-5-fluoro-N4-(2,2,6,6-tetramethylpiperidin-4-yl)pyrimidine-2,4-diamine] | > 1000 nM
CC(=O)N1CCCC(Oc2c(F)cc(Nc3ncc(F)c(NC4CC(C)(C)N(C)C(C)(C)C4)n3)cc2F)CC1 (stereo not drawn) [III-81, 1-(4-(2,6-difluoro-4-(5-fluoro-4-(1,2,2,6,6-pentamethylpiperidin-4-ylamino)pyrimidin-2-ylamino)phenoxy)azepan-1-yl)ethanone] | 500 to 1000 nM
CC(=O)N1CCCC(Oc2c(F)cc(Nc3ncc(F)c(NC4CC(C)(C)NC(C)(C)C4)n3)cc2F)CC1 (stereo not drawn) [III-82, 1-(4-(2,6-difluoro-4-(5-fluoro-4-(2,2,6,6-tetramethylpiperidin-4-ylamino)pyrimidin-2-ylamino)phenoxy)azepan-1-yl)ethanone] | > 1000 nM
CCNC(=O)N1CCCC(Oc2c(F)cc(Nc3ncc(F)c(NC4CC(C)(C)N(C)C(C)(C)C4)n3)cc2F)CC1 (stereo not drawn) [III-83, 4-(2,6-difluoro-4-(5-fluoro-4-(1,2,2,6,6-pentamethylpiperidin-4-ylamino)pyrimidin-2-ylamino)phenoxy)-N-ethylazepane-1-carboxamide] | 500 to 1000 nM
CC1(C)CC(Nc2nc(Nc3cc(F)c(OC4CCN(S(C)(=O)=O)CC4)c(F)c3)ncc2F)CC(C)(C)N1 [III-84, N2-(3,5-difluoro-4-(1-(methylsulfonyl)piperidin-4-yloxy)phenyl)-5-fluoro-N4-(2,2,6,6-tetramethylpiperidin-4-yl)pyrimidine-2,4-diamine] | > 1000 nM
CCNC(=O)N1CCCC(Oc2c(F)cc(Nc3ncc(F)c(NC4CC(C)(C)NC(C)(C)C4)n3)cc2F)CC1 (stereo not drawn) [III-85, 4-(2,6-difluoro-4-(5-fluoro-4-(2,2,6,6-tetramethylpiperidin-4-ylamino)pyrimidin-2-ylamino)phenoxy)-N-ethylazepane-1-carboxamide] | > 1000 nM
CCNC(=O)N1CCC(Oc2ccc(Nc3ncc(F)c(NC4CC(C)(C)NC(C)(C)C4)n3)cc2OC(F)F)CC1 [III-86, 4-(2-(difluoromethoxy)-4-(5-fluoro-4-(2,2,6,6-tetramethylpiperidin-4-ylamino)pyrimidin-2-ylamino)phenoxy)-N-ethylpiperidine-1-carboxamide] | > 1000 nM
CCNC(=O)N1CCCC(Oc2ccc(Nc3ncc(F)c(NC4CC(C)(C)N(C)C(C)(C)C4)n3)cc2OC(F)F)CC1 (stereo not drawn) [III-87, 4-(2-(difluoromethoxy)-4-(5-fluoro-4-(1,2,2,6,6-pentamethylpiperidin-4-ylamino)pyrimidin-2-ylamino)phenoxy)-N-ethylazepane-1-carboxamide] | 250 to 500 nM
CCNC(=O)N1CCCC(Oc2ccc(Nc3ncc(F)c(NC4CC(C)(C)NC(C)(C)C4)n3)cc2OC(F)F)CC1 (stereo not drawn) [III-88, 4-(2-(difluoromethoxy)-4-(5-fluoro-4-(2,2,6,6-tetramethylpiperidin-4-ylamino)pyrimidin-2-ylamino)phenoxy)-N-ethylazepane-1-carboxamide] | > 1000 nM
CN1C(C)(C)CC(Nc2nc(Nc3ccc(OC4CCCN(S(C)(=O)=O)CC4)c(OC(F)F)c3)ncc2F)CC1(C)C (stereo not drawn) [III-89, N2-(3-(difluoromethoxy)-4-(1-(methylsulfonyl)azepan-4-yloxy)phenyl)-5-fluoro-N4-(1,2,2,6,6-pentamethylpiperidin-4-yl)pyrimidine-2,4-diamine] | 250 to 500 nM
CC1(C)CC(Nc2nc(Nc3ccc(OC4CCCN(S(C)(=O)=O)CC4)c(OC(F)F)c3)ncc2F)CC(C)(C)N1 (stereo not drawn) [III-90, N2-(3-(difluoromethoxy)-4-(1-(methylsulfonyl)azepan-4-yloxy)phenyl)-5-fluoro-N4-(2,2,6,6-tetramethylpiperidin-4-yl)pyrimidine-2,4-diamine] | 500 to 1000 nM
CC(=O)N1CCC(Oc2c(F)cc(Nc3ncc(F)c(NC4CC(C)(C)N(C)C(C)(C)C4)n3)cc2F)CC1 [III-91, 1-(4-(2,6-difluoro-4-(5-fluoro-4-(1,2,2,6,6-pentamethylpiperidin-4-ylamino)pyrimidin-2-ylamino)phenoxy)piperidin-1-yl)ethanone] | 500 to 1000 nM
CC(=O)N1CCC(Oc2c(F)cc(Nc3ncc(F)c(NC4CC(C)(C)NC(C)(C)C4)n3)cc2F)CC1 [III-92, 1-(4-(2,6-difluoro-4-(5-fluoro-4-(2,2,6,6-tetramethylpiperidin-4-ylamino)pyrimidin-2-ylamino)phenoxy)piperidin-1-yl)ethanone] | > 1000 nM
CC(C)N1CCC(Oc2ccc(Nc3ncc(F)c(NC4CC(C)(C)N(C)C(C)(C)C4)n3)cc2Cl)CC1 [III-95, N2-(3-chloro-4-(1-isopropylpiperidin-4-yloxy)phenyl)-5-fluoro-N4-(1,2,2,6,6-pentamethylpiperidin-4-yl)pyrimidine-2,4-diamine] | < 250 nM
CC1(C)CC(Nc2nc(Nc3ccc(OC4CCN(CCF)CC4)c(Cl)c3)ncc2F)CC(C)(C)N1 [III-96, N2-(3-chloro-4-(1-(2-fluoroethyl)piperidin-4-yloxy)phenyl)-5-fluoro-N4-(2,2,6,6-tetramethylpiperidin-4-yl)pyrimidine-2,4-diamine] | < 250 nM
CN1C(C)(C)CC(Nc2nc(Nc3ccc(OC4CCN(CCF)CC4)c(Cl)c3)ncc2F)CC1(C)C [III-97, N2-(3-chloro-4-(1-(2-fluoroethyl)piperidin-4-yloxy)phenyl)-5-fluoro-N4-(1,2,2,6,6-pentamethylpiperidin-4-yl)pyrimidine-2,4-diamine] | < 250 nM
